According to patent US20230174486A1, “NON-LYSOSOMAL GLUCOSYLCERAMIDASE INHIBITORS AND USES THEREOF” (ALECTOS THERAPEUTICS lNC., priority 2020, published 2023):

What was measured:
[1] = target: T1, human GBA2 (Homo sapiens, UniProt Q9HCG7); test: Inhibition of GBA2 in cell lysate (4-methylumbelliferone-β-D glucopyranoside substrate); type: biochemical; details: homogenate of HEK293T cells stably overexpressing human GBA2, pH 5.5, 37° C., GCase inhibitor present
T1 construct: cellular homogenate
T1 sequence (Q9HCG7 1-927): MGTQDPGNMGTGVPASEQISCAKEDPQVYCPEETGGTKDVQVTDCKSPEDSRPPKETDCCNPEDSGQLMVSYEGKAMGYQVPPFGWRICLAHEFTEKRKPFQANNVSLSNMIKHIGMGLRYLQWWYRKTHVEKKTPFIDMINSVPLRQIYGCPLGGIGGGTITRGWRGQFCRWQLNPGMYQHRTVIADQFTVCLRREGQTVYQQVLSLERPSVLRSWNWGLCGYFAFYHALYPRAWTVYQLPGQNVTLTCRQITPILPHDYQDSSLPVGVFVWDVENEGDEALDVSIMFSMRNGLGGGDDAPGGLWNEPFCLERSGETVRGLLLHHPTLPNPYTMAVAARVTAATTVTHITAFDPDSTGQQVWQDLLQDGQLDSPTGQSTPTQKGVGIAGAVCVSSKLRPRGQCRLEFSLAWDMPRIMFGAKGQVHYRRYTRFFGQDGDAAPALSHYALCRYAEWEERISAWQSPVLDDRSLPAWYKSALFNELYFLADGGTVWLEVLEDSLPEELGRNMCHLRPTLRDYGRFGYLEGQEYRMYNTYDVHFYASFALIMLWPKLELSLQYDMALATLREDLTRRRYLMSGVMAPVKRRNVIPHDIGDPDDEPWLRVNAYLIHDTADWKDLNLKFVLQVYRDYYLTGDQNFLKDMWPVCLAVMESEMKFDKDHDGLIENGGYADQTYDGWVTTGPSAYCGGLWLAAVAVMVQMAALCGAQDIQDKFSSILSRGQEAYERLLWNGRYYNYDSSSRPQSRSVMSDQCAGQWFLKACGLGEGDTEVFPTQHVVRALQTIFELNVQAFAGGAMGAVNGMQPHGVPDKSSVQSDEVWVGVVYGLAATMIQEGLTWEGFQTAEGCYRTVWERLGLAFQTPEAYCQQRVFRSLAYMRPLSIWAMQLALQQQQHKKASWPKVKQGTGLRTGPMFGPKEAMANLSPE
Procedure: Stable GBA2-expressing HEK293T cells were generated as follows. The PCR-amplified human GBA2 (GBA2 nucleotide accession number BC011363) using the following primers: Sense 5’---CGCAAATGGGCGGTAGGCGTG---3’ and antisense 5’---TAGTCAGCCATGGGGCGGAGA ---3’) was cloned into pLenti-GIII-CMV by ABM Inc. The correctness of the construct was verified by sequencing. Lentivirus particles containing GBA2 in the pLenti-GIII-CMV plasmid were prepared using a third Generation Virus Packaging Mix (ABM cat# LV053-G074) in HEK293T cells and supplied as a virus particle suspension. The virus suspension was used for infection of HEK293T cells. Cell populations stably expressing human GBA2 were selected using puromycin for several weeks as determined by activity assays and western blot.
Various concentrations of test compounds were prepared in DMSO and then diluted into buffer consisting of 100 mM citric acid, 200 mM disodium phosphate with 1% v/v C10E6, pH 5.5. Cellular homogenates (0.25 mg/mL) of the stable HEK293T-overexpressing GBA2 cell line were preincubated for 10 min on ice with an inhibitor of GCase (20 µM (6R,7R,8S)-8-ethyl-4-azaspiro[2.5]octane-6,7-diol). The reaction solution consisted of 20 µL of 750 µM 4-methylumbelliferone-β-D glucopyranoside in 5% DMSO in the same buffer, 20 µL of GBA2-cellular homogenate pre-treated with (6R,7R,8S)-8-ethyl-4-azaspiro[2.5]octane-6,7-diol and 20 µL of various concentrations of test compound in 10% DMSO in the same buffer. The final concentrations in the reaction were 0.083 mg/mL GBA2-cellular homogenate, 250 µM 4-methylumbelliferone-β-D glucopyranoside, and various concentrations of inhibitor. The inhibitor and GBA2-cellular homogenate were preincubated together for 5 min at 37° C. The reaction was initiated by addition of substrate and allowed to proceed for 20 min at 37° C. to assess GBA2 activity. Reactions were stopped by the addition of an equal volume (60 µL) of 0.5 M NaOH, 0.3 M glycine, pH 10.5. Fluorescence was measured on a Biotek Synergy H4 plate reader at wavelengths of 365 nm for excitation and 450 nm for emission. Incubations without added enzyme or added inhibitors were used to define no enzyme activity and maximal enzyme activity, respectively. IC50 values were determined by fitting the data to a log[inhibitor concentration] versus response curve using GraphPad Prism. IC50 values were calculated as the concentration of inhibitor required to inhibit GBA2 activity by 50%.

[2] = target: T2, human non-lysosomal glucosylceramidase (GBA2) (Homo sapiens, UniProt Q9HCG7); test: Binding specificity for GBA2 over other molecules (ratio of Ki or IC50 values); type: biochemical; details: qualitative statement, no values or other enzyme given
T2 sequence (Q9HCG7 1-927): T1 sequence (Q9HCG7 1-927)
Source text: In some embodiments, one or more of the compounds according to the invention may specifically bind a GBA2. In alternative embodiments, one or more of the compounds according to the invention may specifically bind the active site of a GBA2. […] In alternative embodiments, one or more of the compounds according to the invention may specifically bind the human non-lysosomal glucosylceramidase (GBA2) over the human lysosomal glucosylceramidase (GCase) and/or the human cytosolic glucosylceramidase (GBA3). In alternative embodiments, one or more of the compounds according to the invention may specifically bind the human non-lysosomal glucosylceramidase (GBA2) over the human glucosylceramide synthase (GCS). In alternative embodiments, one or more of the compounds according to the invention may specifically bind the human non-lysosomal glucosylceramidase (GBA2) over an intestinal alpha-glucosidase, where the intestinal alpha-glucosidase may be a sucrase-isomaltase or a maltase-glucoamylase.

Row | SMILES | GBA2 IC50 [1] | binding specificity, Ki(other molecule)/Ki(GBA2) or IC50(other molecule)/IC50(GBA2) [2]
1 | C[C@@H](CN1C[C@H](O)[C@@H](O)[C@H](O)[C@H]1CO)c1ccccc1 (single isomer, unassigned) [Example 7] | ∗∗∗ | –
2 | C[C@H](CN1C[C@H](O)[C@@H](O)[C@H](O)[C@H]1CO)c1ccccc1 (single isomer, unassigned) [Example 8] | ∗∗∗ | enhanced binding specificity
3 | OC[C@@H]1[C@@H](O)[C@H](O)[C@@H](O)CN1CCc1ccccc1F [Example 1, (2R,3R,4R,5S)-1-(2-fluorophenethyl)-2-(hydroxymethyl)piperidine-3,4,5-triol] | ∗∗∗ | –
4 | OC[C@@H]1[C@@H](O)[C@H](O)[C@@H](O)CN1CCc1cccc(F)c1 [Example 2, (2R,3R,4R,5S)-1-(3-fluorophenethyl)-2-(hydroxymethyl)piperidine-3,4,5-triol] | ∗∗∗ | –
5 | OC[C@@H]1[C@@H](O)[C@H](O)[C@@H](O)CN1CCc1ccc(F)cc1 [Example 3, (2R,3R,4R,5S)-1-(4-fluorophenethyl)-2-(hydroxymethyl)piperidine-3,4,5-triol] | ∗∗∗ | –
6 | OC[C@@H]1[C@@H](O)[C@H](O)[C@@H](O)CN1CCc1c(F)cccc1F [Example 4, (2R,3R,4R,5S)-1-(2,6-difluorophenethyl)-2-(hydroxymethyl)piperidine-3,4,5-triol] | ∗∗∗ | enhanced binding specificity
7 | OC[C@@H]1[C@@H](O)[C@H](O)[C@@H](O)CN1CCc1cccc(C(F)(F)F)c1 [Example 5, (2R,3R,4R,5S)-2-(hydroxymethyl)-1-(3-(trifluoromethyl)phenethyl)piperidine-3,4,5-triol] | ∗∗∗ | –
8 | OC[C@@H]1[C@@H](O)[C@H](O)[C@@H](O)CN1CCc1ccc(C(F)(F)F)cc1 [Example 6, (2R,3R,4R,5S)-2-(hydroxymethyl)-1-(4-(trifluoromethyl)phenethyl)piperidine-3,4,5-triol] | ∗∗∗ | –
9 | OC[C@@H]1[C@@H](O)[C@H](O)[C@@H](O)CN1CCc1ccccn1 [Example 9, (2R,3R,4R,5S)-2-(hydroxymethyl)-1-(2-(pyridin-2-yl)ethyl)piperidine-3,4,5-triol] | ∗∗ | –
10 | OC[C@@H]1[C@@H](O)[C@H](O)[C@@H](O)CN1CCc1cccs1 [Example 10, (2R,3R,4R,5S)-2-(hydroxymethyl)-1-(2-(thiophen-2-yl)ethyl)piperidine-3,4,5-triol] | ∗∗∗ | –
11 | OC[C@@H]1[C@@H](O)[C@H](O)[C@@H](O)CN1CCc1ccsc1 [Example 11, (2R,3R,4R,5S)-2-(hydroxymethyl)-1-(2-(thiophen-3-yl)ethyl)piperidine-3,4,5-triol] | ∗∗∗ | –
12 | OC[C@H]1[C@@H](O)[C@H](O)[C@@H](O)CN1CC1CCCCC1 [Example 12, (2S,3R,4R,5S)-1-(cyclohexylmethyl)-2-(hydroxymethyl)piperidine-3,4,5-triol] | ∗∗∗ | enhanced binding specificity
13 | OC[C@H]1[C@@H](O)[C@H](O)[C@@H](O)CN1C[C@H]1CC[C@H](C(F)(F)F)CC1 [Example 13, (2S,3R,4R,5S)-2-(hydroxymethyl)-1-(((1r,4R)-4-(trifluoromethyl)cyclohexyl)methyl)piperidine-3,4,5-triol] | ∗∗∗ | enhanced binding specificity
14 | CC(C)(F)[C@H]1CC[C@@H](CN2C[C@H](O)[C@@H](O)[C@H](O)[C@@H]2CO)CC1 [Example 14, (2S,3R,4R,5S)-1-(((1s,4S)-4-(2-fluoropropan-2-yl)cyclohexyl)methyl)-2-(hydroxymethyl)piperidine-3,4,5-triol] | ∗∗∗ | enhanced binding specificity
15 | OC[C@H]1[C@@H](O)[C@H](O)[C@@H](O)CN1CC1Cc2ccccc2C1 [Example 15, (2S,3R,4R,5S)-1-((2,3-dihydro-1H-inden-2-yl)methyl)-2-(hydroxymethyl)piperidine-3,4,5-triol] | ∗∗∗ | enhanced binding specificity
16 | OC[C@H]1[C@@H](O)[C@H](O)[C@@H](O)CN1CCC1CCCCC1 [Example 16, (2S,3R,4R,5S)-1-(2-cyclohexylethyl)-2-(hydroxymethyl)piperidine-3,4,5-triol] | ∗∗∗ | enhanced binding specificity
17 | OC[C@H]1[C@@H](O)[C@H](O)[C@@H](O)CN1CCCC1CCCCC1 [Example 17, (2S,3R,4R,5S)-1-(3-cyclohexylpropyl)-2-(hydroxymethyl)piperidine-3,4,5-triol] | ∗∗∗ | –
18 | OC[C@H]1[C@@H](O)[C@H](O)[C@@H](O)CN1CCc1ccccc1F [Example 18, (2S,3R,4R,5S)-1-(2-fluorophenethyl)-2-(hydroxymethyl)piperidine-3,4,5-triol] | ∗∗∗ | –
19 | OC[C@H]1[C@@H](O)[C@H](O)[C@@H](O)CN1CCc1cccc(Cl)c1F [Example 19, (2S,3R,4R,5S)-1-(3-chloro-2-fluorophenethyl)-2-(hydroxymethyl)piperidine-3,4,5-triol] | ∗∗∗ | –
20 | OC[C@H]1[C@@H](O)[C@H](O)[C@@H](O)CN1C[C@H]1CCN(c2nc(C(F)(F)F)cs2)C1 [Example 26, (2S,3R,4R,5S)-2-(hydroxymethyl)-1—(((R)—1-(4-(trifluoromethyl)thiazol-2-yl)pyrrolidin-3-yl)methyl)piperidine-3,4,5-triol] | ∗∗∗ | –
21 | OC[C@H]1[C@@H](O)[C@H](O)[C@@H](O)CN1C[C@H]1CCCN(c2nc(C(F)(F)F)cs2)C1 [Example 30, (2S,3R,4R,5S)-2-(hydroxymethyl)-1—(((R)—1-(4-(trifluoromethyl)thiazol-2-yl)piperidin-3-yl)methyl)piperidine-3,4,5-triol] | ∗∗∗ | –
